The values below come from patent publication US20100248272A1, “Method for identifying Smk box riboswitch modulating compounds” (Cornell University, priority 2009, published 2010).

Several values for one entry are separate records, joined by “and”; a condition that tells them apart may be missing. Identical values can stand only once. Entries after “also recorded” stand apart in the source; their conditions may differ.

Assay [1] has as its system E. faecalis metK-lacZ fusion A93C. Here is the method: (§1) In this experiment, in vivo lacZ reporter gene assays were conducted as previously described (R. T. Fuchs, et al., 2006, Ibid. and R. T. Fuchs, et al., 2007, Ibid.). Enterococcus faecalis metK leader region constructs, which included the first 15 nt of the coding region, were positioned downstream of the highly expressed B. subtilis glyQS promoter. The resulting DNA fragment was inserted into a lacZ fusion vector (pFG328) to generate an in-frame metK-lacZ translational fusion in which the first five codons of metK were fused to codon 18 of lacZ. The constructs were introduced into the chromosome of B. subtilis strain BR151 (metB10 lys-3trpC2) by integration into an SPβ prophage. Bacillus subtilis strains containing the lacZ fusions were grown at 37° C. in Spizizen minimal medium containing methionine ([…]) until early exponential growth. The cells were harvested by centrifugation at 8,000 g and resuspended in Spizizen medium either with or without methionine, and samples were collected at 1-h intervals and assayed for β-galactosidase activity after toluene permeabilization of the cells.

For assay [2], the system named is E. faecalis metK-lacZ fusion C24U. Here is the method:
as §1

In assay [3] the test system is E. faecalis metK-lacZ fusion C24G. Here is the method: as §1
In assay [4] the test system is E. faecalis metK-lacZ fusion C24U + G91A. Here is the method:
as §1

Assay [5] relates to E. faecalis metK-lacZ fusion U22G + A93C. Here is the method:
as §1

For assay [6], the system named is E. faecalis metK-lacZ fusion C25U. Here is the method:
as §1

The subject of assay [7] is E. faecalis metK-lacZ fusion WT. Here is the method: as §1
Assay [8] deals with E. faecalis metK-lacZ fusion U22G. Here is the method: as §1
Assay [9] relates to E. faecalis metK-lacZ fusion C25U + G90A. Here is the method:
as §1

The subject of assay [10] is E. faecalis metK-lacZ fusion WT. To be noted: cells grown in the presence of high methionine concentrations; previously shown; cited from earlier work.
For assay [11], the system named is 30S ribosomal subunit on the SMK box mRNA. Nature of the assay: Ribosome toeprinting analysis. The class given is biochemical. To be noted: in the presence of ligand.
Assay [12] has as its target full-length E. faecalis metK RNA (wild-type 15-118 metK leader sequence). The assay is described as follows: Apparent Kd determination by size-exclusion filtration (modified SAM binding assay). To be noted: full-length transcript, positions 15-118; [3H]-SAM. Here is the method:
(§2) The apparent equilibrium dissociation constants (Kd values) for the wild-type 15-118 metK leader sequence and the 53-nucleotide crystallization construct were determined using a modified SAM binding assay (J. Tomsic, et al., J. Bacteriol., 190, 823-833 (2007)). Briefly, T7 RNA polymerase transcribed RNA (1 μM) in 1× transcription buffer was refolded as described above and incubated with [^3H]-SAM ranging in concentration from 0.02 to 10 μM. Binding reactions were loaded onto Nanosep 3K Omega filters (Pall Life Sciences) and centrifuged briefly at 14,000 g to avoid large volume changes. The concentration of the RNA-[^3H]-SAM complex retained by the filter and the unbound SAM present in the flow through were determined by scintillation counting of known volumes, and nonlinear regression analyses were performed using Kaleida-Graph Version 3.51 (Synergy Software). Apparent Kd values represent the averages of at least two independent experiments for each construct with a margin of error≦5%.
(§3) The Kd value for the full-length SMK transcript was further confirmed by fluorescence-quenching assays, as described below and shown in FIG. 11.
(In general: SEC sorts molecules by how far they enter the pores of the column.)

In assay [13] the test system is U72C mutant metK leader RNA. The assay is described as follows: 2-AP fluorescence quenching. The class given is binding, E. faecalis. To be noted: SAM concentrations up to 100 μM. Here is the method:
(§4) FIG. 11. […] Increasing concentrations of SAM were added to bipartite metK leader RNA containing an internal 2-AP modification at residue A29. 2-AP fluorescence at steady-state was measured at 375 nm with an excitation wavelength of 310 nm. […] Percent quenching (ΔF/F0×100) represents the change in fluorescence normalized to the initial fluorescence observed in the absence of SAM.
(§5) For this, a bipartite RNA comprised of two half RNAs was used, which corresponds to positions 15-46 and 47-118. The two RNA halves are predicted to anneal through extensive base pairing in the P1-P3 helices to form the full-length metK leader RNA corresponding to positions 15-118, with a nick immediately upstream of residue G47 at the top of the P3 stein loop.
(§6) A 2-aminopurine (2-AP) modification was incorporated into the upstream RNA at residue A29 to monitor local conformational changes occurring at this position in response to SAM binding using florescence spectroscopy.

For assay [14], the system named is E. faecalis SMK box U22G A93C double mutant RNA. The note with it: cited from earlier work.
Assay [15] has as its target wild-type 15-118 metK leader RNA (bipartite, 2-AP at A29). Nature of the assay: Kd measurement by 2-AP fluorescence quenching. The format is binding, E. faecalis. To be noted: for quenching of 2-AP fluorescence: wild-type RNA. Here is the method: as §4, §5, §6
The subject of assay [16] is E. faecalis SMK box U22G mutant RNA. To be noted: U22G mutation; cited from earlier work.
Assay [17] concerns E. faecalis SMK box U72C mutant RNA. The assay is described as follows: In vitro SAM binding assay (size-exclusion filtration). An excerpt:
(§7) DNA templates corresponding to positions 15-118 (relative to the predicted transcription start site) of the E. faecalis metK leader were constructed by ligating overlapping pairs of complementary oligonucleotides, including a T7 RNA polymerase promoter sequence, as previously described (M. R. Yousef, et al., RNA, 9, 1148-1156 (2003) and B. A., McDaniel, et al., Mol. Microbiol., 57, 1008-1021 (2005)). Ligated products were amplified by PCR and RNAs were synthesized by T7 RNA polymerase transcription using an AmpliScribe T7 High Yield Transcription Kit (Epicentre Biotechnologies). RNAs (3 μM) in 1× transcription buffer (F. J. Grundy, et al., Nucleic Acids Res., 30, 1646-1655 (2002)) were heated to 65° C. for 5 minutes and slow-cooled to 40° C., followed by addition of radiolabeled SAM (3 μM [methyl-3H]-SAM, 15 Ci mmol^−1; GE Healthcare) in a total reaction volume of 40 μL, Binding reactions were incubated at room temperature (20-25° C.) for 15 minutes followed by passage through a Nanosep 10K Omega filter (Pall Life Sciences) by centrifugation at 14,000 g for 2.5 minutes. Filters were washed four times with 40 μL 1× transcription buffer to remove unbound SAM, and material retained by the filter was collected, mixed with Packard BioScience Ultima Gold scintillation fluid, and counted in a Packard Tri-Carb 2100TR liquid scintillation counter. No SAM was retained by the filter in the absence of RNA.

Assay [18] relates to E. faecalis SMK box G88A mutant RNA. The description is as above. The note with it: G88A mismatch mutation.
From the text: as §7

Assay [19] concerns E. faecalis SMK box C25U G90A double mutant RNA. The description is as above. To be noted: C25U G90A double mutation.
From the text: as §7

For assay [20], the system named is E. faecalis SMK box RNA with poly(A)6 linker and G88 and G89 mutated to adenosine. The assay is described as above. The note with it: poly(A)6 linker plus G88 and G89 to adenosine.
From the text: as §7

Assay [21] has as its system E. faecalis SMK box C76U mutant RNA. Described as above. The note with it: C76U wobble mutation.
From the text: as §7

Assay [22] deals with E. faecalis SMK box C76U G88A mutant RNA. Described as above. To be noted: C76U and G88A combined.
From the text: as §7

The test system of assay [23] is E. faecalis SMK box G26A mutant RNA. The assay is described as above.
From the text: as §7

For assay [24], the system named is E. faecalis SMK box U65C mutant RNA. Described as above. The note with it: U65C mutation.
From the text: as §7

Assay [25] has as its system E. faecalis SMK box C24G mutant RNA. The assay is described as above. The note with it: C24G mutation.
From the text: as §7

For assay [26], the system named is E. faecalis SMK box A73G mutant RNA. The description is as above. The note with it: A73G mutation.
From the text: as §7

Assay [27] has as its system E. faecalis SMK box U65 deletion mutant RNA. The assay is described as above.
From the text: as §7

In assay [28] the test system is E. faecalis SMK box G90A mutant RNA. The assay is described as above. To be noted: G90A mutation (C25•A90 mismatch).
From the text: as §7

Assay [29] relates to E. faecalis SMK box RNA with linker region replaced by poly(A)6. Described as above. To be noted: 11-nt linker replaced with poly(A)6.
From the text: as §7

Assay [30] relates to E. faecalis SMK box C25U mutant RNA. Described as above.
From the text: as §7

The test system of assay [31] is E. faecalis SMK box C24U G91A double mutant RNA. The assay is described as above. To be noted: C24U G91A double mutation.
From the text: as §7

Assay [32] deals with SMK6 crystallization construct (53-nucleotide SMK box riboswitch). Nature of the assay: Apparent Kd determination by size-exclusion filtration (modified SAM binding assay). Also noted: species or system E. faecalis. The note with it: 53-nt crystallization construct SMK6; [3H]-SAM. Here is the method:
as §2, §3

Assay [33] deals with E. faecalis SMK box A93C mutant RNA. The note with it: A93C mutation; cited from earlier work.
The next assay has as its system SMK box riboswitch. The assay is described as follows: Competition binding assay SAM versus SAH. The note with it: >100-fold excess of SAH over SAM. Details: species or system E. faecalis.
From the text: FIGS. 6A, 6B. Effects of SMK box riboswitch mutagenesis on SAM binding and apparent SAM binding constant (Ka) determination. (A) Effects of mutation (with s.d.) on SAM binding by size-exclusion filtration assay, as described. (B) SAM and SAH Kd determination by competition binding assay.
as §3

[34] abbreviates: Spizizen medium with methionine.

For the molecule `CSCC[C@H](N)C(=O)O` [Met, methionine], the “Ratio (−Met/+Met)” value in assay [1] turned out to be 1.8; in assay [2], 1.6; in assay [3] it was 1.2; in assay [4] it was 1.5; in assay [5] it was 4.4; in assay [6], 2.8. Further, the “Ratio (−Met/+Met)” value is given as 5.0 in assay [7], 1.4 in [8] and 0.95 in [9]. Moreover, the “Expression of metK-lacZ fusion, +Met (β-galactosidase activity)” value in assay [1] (setting [34]) is on record as 42 +/− 1.0; in [2] (setting [34]) it was 200 +/− 22; in assay [3] (setting [34]), 95 +/− 6.1; in assay [4] (setting [34]), 15 +/− 2.9; in assay [5] (setting [34]), 2.5 +/− 0.72; in assay [6] (setting [34]), 80 +/− 5.0. Also, the “Expression of metK-lacZ fusion, +Met (β-galactosidase activity)” value was 24 +/− 5.5 in [7] (setting [34]), 160 +/− 13 in assay [8] (setting [34]) and 82 +/− 16 in assay [9] (setting [34]). The “reduction in expression of lacZ reporter” value in [10] is reported as “five”.

In the case of `C[S+](CC[C@H](N)C(=O)[O-])C[C@H]1O[C@@H](n2cnc3c(N)ncnc32)[C@H](O)[C@@H]1O` (some centres unmarked) [SAM, S-adenosyl methionine], the “correct positioning of the 30S ribosomal subunit on the SMK box mRNA” value in assay [11] was “reduced”. Also, the Kd in assay [12] was 850 nM; in assay [15] (2-AP fluorescence, excitation 310 nm, emission 375 nm, read-out: apparent Kd) it was 1030 nM and 1000 nM; in [32] it was 570 nM. Further, the “quenching of 2-AP fluorescence” value in assay [13] is “No quenching; also recorded: no substantial change in fluorescence”; in [15] it was “concentration-dependent quenching”. In addition, the “SAM binding” value in assay [14] is on record as “restores SAM binding”; in [20], “dramatically reduced”; in [25], “loss of SAM binding”; in assay [31], “restored SAM binding”. The entries for the “SAM binding in vitro” value in assay [16], in [30] (C25U substitution) and in assay [33] were “loss of SAM binding”, “modest reduction” and “loss of SAM binding”, respectively. The “SAM binding in the filtration assay” value in assay [17] (U72C RNA) is “loss of SAM binding”. Further, the results for the “decrease in SAM binding activity” value in assay [17] (U72C mutation), in assay [24] and in assay [27] were 70 fold, 5 fold and 20 fold, respectively. In addition, the “reduction in SAM binding activity” value in assay [18] was 75 fold; in assay [26], 80 fold. Further, the results for the “SAM binding activity” value in [19], in assay [29] and in assay [30] (C25U mutation (U25-G90 wobble pair)) were “loss of SAM binding activity”, “did not affect” and 63%, respectively. In addition, the “SAM binding activity retained” value in assay [21] is 59%. For the same molecule, in assay [22], the “SAM binding, of the wild-type level” value turned out to be 32%. In addition, the “reduction of SAM binding” value in assay [23] is given as “five”. Besides, the “SAM binding activity, of the wild type” value in assay [28] was found to be 1.3%.

With `Nc1ncnc2c1ncn2[C@@H]1O[C@H](CSCC[C@H](N)C(=O)O)[C@@H](O)[C@H]1O` [SAH, S-adenosyl-L-homocysteine], in the assay with SMK box riboswitch, the “competition by unlabeled SAH” value is on record as “no competition”. Moreover, the “quenching of 2-AP fluorescence” value in assay [15] is given as “not observed”.
